Tests used:
Assay in all cases: normalized area under the dose-response curve (viability relative to DMSO control) (fraction); higher = less sensitive (more viable cells)
Settings in all cases: exposure time not given
[1] = tested on: OCI-LY3 (cancer type: DLBCL)
Description: (§1)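 25 myeloma and 15 non-Hodgkin lymphoma cell lines were exposed to each of 76 drugs as 7-point log dilutions (0.01 nM–10 µM) in duplicate. Viability was read with CellTiter-Glo and normalised to DMSO (0.1%) and staurosporine (10 µM) plate controls. Normalised AUC was calculated by the trapezoidal method relative to the negative control.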

JJN3 (cancer type: MM) = tested on: JJN3 (cancer type: MM)
Description: as §1

[2] = tested on: KMS28BM (cancer type: MM)
Description: as §1

[3] = tested on: KMS12PE (cancer type: MM)
Description: as §1

[4] = tested on: JVM2 (cancer type: Mantle)
Description: as §1

L363 (cancer type: MM) = tested on: L363 (cancer type: MM)
Description: as §1

MM1.S (cancer type: MM) = tested on: MM1.S (cancer type: MM)
Description: as §1

SKMM2 (cancer type: MM) = tested on: SKMM2 (cancer type: MM)
Description: as §1

U266 (cancer type: MM) = tested on: U266 (cancer type: MM)
Description: as §1

[5] = tested on: SU-DHL6 (cancer type: DLBCL)
Description: as §1

[6] = tested on: KMS28PE (cancer type: MM)
Description: as §1

[7] = tested on: NCI-H929 (cancer type: MM)
Description: as §1

KMS18 (cancer type: MM) = tested on: KMS18 (cancer type: MM)
Description: as §1

XG2 (cancer type: MM) = tested on: XG2 (cancer type: MM)
Description: as §1

FR4 (cancer type: MM) = tested on: FR4 (cancer type: MM)
Description: as §1

MM1.R (cancer type: MM) = tested on: MM1.R (cancer type: MM)
Description: as §1

[8] = tested on: OCI-LY1 (cancer type: DLBCL)
Description: as §1

KMS26 (cancer type: MM) = tested on: KMS26 (cancer type: MM)
Description: as §1

KMS11 (cancer type: MM) = tested on: KMS11 (cancer type: MM)
Description: as §1

[9] = tested on: OCI-MY5 (cancer type: MM)
Description: as §1

[10] = tested on: OCI-MY7 (cancer type: MM)
Description: as §1

[11] = tested on: JeKo-1 (cancer type: Mantle)
Description: as §1

[12] = tested on: OCI-MY5/Vec (cancer type: MM)
Description: as §1

EJM (cancer type: MM) = tested on: EJM (cancer type: MM)
Description: as §1

[13] = tested on: HuT 78 (cancer type: TCL)
Description: as §1

[14] = tested on: SU-DHL1 (cancer type: TCL)
Description: as §1

LP1 (cancer type: MM) = tested on: LP1 (cancer type: MM)
Description: as §1

AMO1 (cancer type: MM) = tested on: AMO1 (cancer type: MM)
Description: as §1

My-La (cancer type: TCL) = tested on: My-La (cancer type: TCL)
Description: as §1

OPM2 (cancer type: MM) = tested on: OPM2 (cancer type: MM)
Description: as §1

[15] = tested on: SR-786 (cancer type: TCL)
Description: as §1

[16] = tested on: OCI-LY19 (cancer type: DLBCL)
Description: as §1

[17] = tested on: SU-DHL2 (cancer type: DLBCL)
Description: as §1

Se-Ax (cancer type: TCL) = tested on: Se-Ax (cancer type: TCL)
Description: as §1

[18] = tested on: RPMI 8226 (cancer type: MM)
Description: as §1

[19] = tested on: Karpas-299 (cancer type: TCL)
Description: as §1

KMS34 (cancer type: MM) = tested on: KMS34 (cancer type: MM)
Description: as §1

[20] = tested on: Granta-519 (cancer type: Mantle)
Description: as §1

[21] = tested on: Mino (cancer type: Mantle)
Description: as §1

[22] = tested on: OCI-MY5/CRBN (cancer type: MM)
Description: as §1

| SMILES | normalized area under the dose-response curve [1] | normalized area under the dose-response curve (JJN3 (cancer type: MM)) | normalized area under the dose-response curve [2] | normalized area under the dose-response curve [3] | normalized area under the dose-response curve [4] | normalized area under the dose-response curve (L363 (cancer type: MM)) | normalized area under the dose-response curve (MM1.S (cancer type: MM)) | normalized area under the dose-response curve (SKMM2 (cancer type: MM)) | normalized area under the dose-response curve (U266 (cancer type: MM)) | normalized area under the dose-response curve [5] | normalized area under the dose-response curve [6] | normalized area under the dose-response curve [7] | normalized area under the dose-response curve (KMS18 (cancer type: MM)) | normalized area under the dose-response curve (XG2 (cancer type: MM)) | normalized area under the dose-response curve (FR4 (cancer type: MM)) | normalized area under the dose-response curve (MM1.R (cancer type: MM)) | normalized area under the dose-response curve [8] | normalized area under the dose-response curve (KMS26 (cancer type: MM)) | normalized area under the dose-response curve (KMS11 (cancer type: MM)) | normalized area under the dose-response curve [9] | normalized area under the dose-response curve [10] | normalized area under the dose-response curve [11] | normalized area under the dose-response curve [12] | normalized area under the dose-response curve (EJM (cancer type: MM)) | normalized area under the dose-response curve [13] | normalized area under the dose-response curve [14] | normalized area under the dose-response curve (LP1 (cancer type: MM)) | normalized area under the dose-response curve (AMO1 (cancer type: MM)) | normalized area under the dose-response curve (My-La (cancer type: TCL)) | normalized area under the dose-response curve (OPM2 (cancer type: MM)) | normalized area under the dose-response curve [15] | normalized area under the dose-response curve [16] | normalized area under the dose-response curve [17] | normalized area under the dose-response curve (Se-Ax (cancer type: TCL)) | normalized area under the dose-response curve [18] | normalized area under the dose-response curve [19] | normalized area under the dose-response curve (KMS34 (cancer type: MM)) | normalized area under the dose-response curve [20] | normalized area under the dose-response curve [21] | normalized area under the dose-response curve [22] |
| --- | --- | --- | --- | --- | --- | --- | --- | --- | --- | --- | --- | --- | --- | --- | --- | --- | --- | --- | --- | --- | --- | --- | --- | --- | --- | --- | --- | --- | --- | --- | --- | --- | --- | --- | --- | --- | --- | --- | --- | --- |
| CC(=O)Nc1cccc(-n2c(=O)n(C3CC3)c(=O)c3c(Nc4ccc(I)cc4F)n(C)c(=O)c(C)c32)c1 [Trametinib] | 0.865 | 0.858 | 0.861 | 0.8 | 0.561 | 0.835 | 0.71 | 0.964 | 0.922 | 0.841 | 0.867 | 0.6 | 0.779 | 0.727 | 0.967 | 0.67 | 0.908 | 0.774 | 0.869 | 0.764 | 0.67 | 0.986 | 0.943 | 0.838 | 0.672 | 0.501 | 0.64 | 0.575 | 0.868 | 0.719 | 0.877 | 0.898 | 0.77 | 0.713 | 0.909 | 0.794 | 0.681 | 0.913 | 0.948 | 0.969 |
| COc1cc2/c(=N/c3ccc(Br)cc3F)nc[nH]c2cc1OCC1CCN(C)CC1 [Vandetanib] | 0.993 | 0.873 | 0.985 | 0.95 | 0.773 | 0.795 | 0.86 | 0.963 | 0.746 | 0.96 | 0.844 | 0.87 | 0.774 | 0.726 | 0.922 | 0.87 | 0.918 | 0.962 | 0.777 | 0.784 | 0.96 | 0.937 | 0.908 | 0.672 | 0.892 | 0.77 | 0.684 | 0.767 | 0.906 | 0.861 | 0.961 | 0.969 | 0.911 | 0.784 | 0.905 | 0.896 | 0.623 | 0.892 | 0.921 | 0.95 |
| CCCS(=O)(=O)Nc1ccc(F)c(C(=O)c2c[nH]c3ncc(-c4ccc(Cl)cc4)cc23)c1F [Vemurafenib] | 0.951 | 0.784 | 1.28 | 0.91 | 0.924 | 0.898 | 0.95 | 0.994 | 0.8 | 0.92 | 0.998 | 0.79 | 0.938 | 1 | 0.825 | 0.97 | 0.933 | 0.965 | 0.909 | 0.788 | 0.94 | 0.971 | 0.998 | 0.902 | 0.964 | 0.867 | 0.89 | 0.808 | 0.976 | 0.936 | 0.98 | 0.912 | 0.972 | 0.673 | 0.975 | 0.969 | 0.765 | 0.957 | 0.917 | 0.958 |
| CC1(C)CCC(CN2CCN(c3ccc(C(=O)NS(=O)(=O)c4ccc(NCC5CCOCC5)c([N+](=O)[O-])c4)c(Oc4cnc5[nH]ccc5c4)c3)CC2)=C(c2ccc(Cl)cc2)C1 [Venetoclax] | 0.179 | 0.354 | 0.119 | 0.09 | 0.73 | 0.584 | 0.57 | 0.0382 | 0.366 | 0.0483 | 0.251 | 0.82 | 0.514 | 0.846 | 0.617 | 0.48 | 0.176 | 0.919 | 0.591 | 0.101 | 0.14 | 0.686 | 0.0321 | 0.615 | 0.752 | 0.696 | 0.817 | 0.64 | 0.872 | 0.371 | 0.952 | 0.247 | 0.982 | 0.196 | 0.481 | 0.829 | 0.525 | 0.212 | 0.876 | 0.0571 |
| CS(=O)(=O)c1ccc(C(=O)Nc2ccc(Cl)c(-c3ccccn3)c2)c(Cl)c1 [Vismodegib] | 0.939 | 0.906 | 0.948 | 0.94 | 0.819 | 0.859 | 0.85 | 1.01 | 0.896 | 0.864 | 0.871 | 0.87 | 0.995 | 0.867 | 1.02 | 0.88 | 0.967 | 0.838 | 0.93 | 0.826 | 0.94 | 0.878 | 0.922 | 0.901 | 0.9 | 0.807 | 0.906 | 0.871 | 0.873 | 0.932 | 0.858 | 0.827 | 0.94 | 0.765 | 0.889 | 0.895 | 0.801 | 0.924 | 0.911 | 0.942 |
| O=C(CCCCCCC(=O)Nc1ccccc1)NO [Vorinostat] | 0.469 | 0.649 | 0.56 | 0.63 | 0.598 | 0.635 | 0.46 | 0.781 | 0.738 | 0.672 | 0.542 | 0.35 | 0.855 | 0.692 | 0.521 | 0.55 | 0.432 | 0.551 | 0.627 | 0.4 | 0.51 | 0.421 | 0.427 | 0.607 | 0.43 | 0.519 | 0.637 | 0.482 | 0.672 | 0.767 | 0.533 | 0.443 | 0.528 | 0.331 | 0.721 | 0.426 | 0.554 | 0.717 | 0.449 | 0.517 |
| Cc1cccc(/C=N/Nc2cc(N3CCOCC3)n3nc(-c4ccncc4)cc3n2)c1 [apy0201] | 0.863 | 0.311 | 0.822 | 0.41 | 0.831 | 0.516 | 0.65 | 0.826 | 0.564 | 0.77 | 0.736 | 0.43 | 0.756 | 0.511 | 0.578 | 0.69 | 0.655 | 0.688 | 0.508 | 0.447 | 0.65 | 0.681 | 0.794 | 0.769 | 0.57 | 0.682 | 0.81 | 0.415 | 0.885 | 0.504 | 0.601 | 0.634 | 0.897 | 0.673 | 0.706 | 0.648 | 0.269 | 0.93 | 0.709 | 0.867 |
| Cc1sc2c(c1C)C(c1ccc(Cl)cc1)=N[C@@H](CC(=O)OC(C)(C)C)c1nnc(C)n1-2 [jq1] | 0.707 | 0.57 | 0.78 | 0.65 | 0.564 | 0.529 | 0.53 | 0.672 | 0.852 | 0.829 | 0.647 | 0.53 | 0.813 | 0.747 | 0.613 | 0.55 | 0.812 | 0.475 | 0.654 | 0.488 | 0.39 | 0.684 | 0.57 | 0.703 | 0.566 | 0.674 | 0.65 | 0.48 | 0.747 | 0.671 | 0.647 | 0.679 | 0.635 | 0.566 | 0.616 | 0.661 | 0.501 | 0.899 | 0.598 | 0.645 |

From the supplement of paper PMC7214452
